Test results reported in patent US20040034222A1, “2,4 diamino-1,3,5-triazines, processes for their preparation and their use as herbicides and plant growth regulators” (priority 1999, published 2004).

Columns and labels:
Assay type in all cases: in vivo
[1] = tested on: Stellaria media, Lolium multiflorum, Amaranthus retroflexus, Sinapis arvensis, Avena fatua and Setaria viridis; test: Pre-emergence effect on weeds (greenhouse pot test); settings: application rate of 1 kg and less of active substance per hectare; scored after 3 to 4 weeks by comparison with untreated controls
Source text: Seeds or rhizome pieces of monocotyledonous and dicotyledonous weed plants are placed in sandy loam soil in plastic pots and covered with soil. The compounds according to the invention which are formulated in the form of wettable powders or emulsion concentrates were then applied to the surface of the soil cover in the form of aqueous suspensions or emulsions at an application rate of 600 to 800 l of water/ha (converted), in various dosages.
After the treatment, the pots are placed in a greenhouse and kept under good growth conditions for the weeds. After the test plants had emerged, the damage to the plants or the negative effect on the emergence was scored visually after a test period of 3 to 4 weeks by comparison with untreated controls. As shown by the test results, compounds according to the invention have good herbicidal pre-emergence activity against a broad spectrum of weed grasses and broad-leafed weeds.

[2] = tested on: Stellaria media, Lolium multiflorum, Amaranthus retroflexus, Sinapis arvensis, Avena fatua und Setaria viridis; test: Post-emergence effect on weeds (greenhouse pot test); settings: application rate of 1 kg and less of active substance per hectare; treated at three-leaf stage; scored after about 3 to 4 weeks by comparison with untreated controls
Procedure: Seeds or rhizome pieces of monocotyledonous and dicotyledonous weeds were placed in sandy loam soil in plastic pots, covered with soil and grown in a greenhouse under good growth conditions. Three weeks after sowing, the test plants were treated at the three-leaf stage. The compounds according to the invention which were formulated as wettable powders or emulsion concentrates were sprayed, at various dosages, onto the, green parts of the plants at an application rate of 600 to 800 l of water/ha (converted). After the test plants had remained in the greenhouse for about 3 to 4 weeks under optimum growth conditions, the effect of the preparations was scored visually by comparison with untreated controls. The agents according to the invention also have good herbicidal activity post-emergence against a broad spectrum of economically important weed grasses and broad-leafed weeds.

[3] = tested on: harmful plants which are typical for rice crops, for example Cyperus iria and Echinochloa crus-galli; test: Action on harmful plants in rice (paddy rice conditions); settings: applied into the dammed water, different dosages, scored about three weeks after application
Source text: Transplanted and sown rice and also typical rice weeds (gramineous and broad-leaved) are cultivated in closed plastic pots in a greenhouse to the three-leaf stage (Echinochloa crus-galli 1.5-leaf) under paddy rice conditions (dammed height of water: 2-3 cm). This is followed by treatment with the novel compounds. For this purpose, the formulated active compounds are suspended, dissolved or emulsified in water and applied by pouring them into the dammed water around the test plants in different dosages. After this treatment, the test plants are set up in a greenhouse under optimum growth conditions and are maintained in this way throughout the test period.
About three weeks after application, evaluation is made by visual scoring of the damage to the plants by comparison with untreated controls.

CC(C)(F)c1nc(N)nc(NC(COc2ccccc2)C2CCC2)n1 (racemic) [Example 178, 2-Amino4-(1-fluoro-1-methylethyl)-6-[N-(1-cyclobutyl-2-phenoxyethyl)-amino]-1,3,5-triazine]
very good herbicidal activity: herbicidal activity pre-emergence (damage to the plants or negative effect on emergence, scored visually) [1] | herbicidal activity post-emergence (scored visually) [2] | herbicidal activity against harmful plants typical for rice crops (visual scoring of damage) [3]

Cc1cccc(OCC(Nc2nc(N)nc(C(F)(F)C(F)F)n2)C2CCCC2)c1 (racemic) [Example 110, 2-Amino-4-(1,1,2,2-tetrafluoroethyl)6-{N-[1-cyclopentyl-2-(3-methylphenoxy)ethyl]amino}-1,3,5-triazine]
very good herbicidal activity: herbicidal activity pre-emergence (damage to the plants or negative effect on emergence, scored visually) [1] | herbicidal activity post-emergence (scored visually) [2] | herbicidal activity against harmful plants typical for rice crops (visual scoring of damage) [3]
